From PMC8151276, “An Integrated Approach toward NanoBRET Tracers for Analysis of GPCR Ligand Engagement” (Molecules, 2021)

Experiments:
Assay type in all cases: binding
CXCR4 = target: T1, CXCR4 (Homo sapiens, UniProt P61073); assay: NanoBRET screen HiBiT-CXCR4 in HEK293
T1 construct: purchased Promega (in-house HiBiT-GPCR construct library, NanoBRET)
Experimental: (§1) Each tracer candidate was screened across the entire library of HiBiT-GPCR constructs using NanoBRET as the detection modality. As depicted in Figure 4A, the specificity of interactions was evaluated through decrease in BRET due to competitive displacement of a bound tracer by excess parental compound. Each tracer was analyzed for binding to each HiBiT-GPCR fusion in the absence and in the presence of competing parental compound. Briefly, HEK293 cells were transfected with HiBiT-GPCR constructs diluted into promoterless DNA to reduce expression and maximize translocation to the cell surface. Each tracer candidate was then screened at concentrations of 1 μM and 0.1 μM across cells expressing these fusions. Cells were treated for 1.5 h with tracer either alone or in the presence of 20 μM competing parental compound (i.e., control). BRET was measured upon addition of purified LgBiT and subsequent complementation with HiBiT genetically fused to a GPCR. The specificity of interactions was assessed through a decrease in BRET signal due to competitive displacement of the bound tracer. To further gauge the robustness of these interactions, the fold response over the control (i.e., BRETtracer/BRETcontrol) was calculated. We chose a 1.5-fold response, which translates to ≥7-fold signal over noise as the minimal threshold required to score an interaction as positive. […]. Below we highlight the screening results obtained for our exemplary fluorescent tracers based on Clozapine, Amitriptyline and AZD1283.
(§2) HiBiT-GPCR DNA constructs were diluted in 10 mM Tris pH 8 to a final concentration of 0.01 μg/μL, arrayed in 96-well plates and stored at −20 °C. For transfection, HEK293 cells were suspended in Opti-MEM (without phenol red) supplemented with 2% fetal bovine serum (Seradigm) and 100 units/mL penicillin–streptomycin (Gibco) at a final concentration of 220,000 cells/mL and dispensed into white 96-well plates at 90 μL/well. Subsequent transfections and screens were carried using an Agilent Bravo Automated Liquid Handling Platform. First, the 96-well HiBiT DNA arrays were diluted 25-fold in Opti-MEM (without serum or phenol red) to a final concentration of 0.0004 μg/μL and 20 μL of the diluted DNAs were transferred into new 96-well plates. Next, promoterless carrier DNA (1 μg/μL) was diluted 25-fold (0.04 μg/μL) and then dispensed into the diluted arrays at 20 μL/well. Following brief mixing, Viafect transfection reagent (Promega) diluted 16-fold into Opti-MEM was dispensed into the plates at 40 μL/well. After mixing by pipetting, plates were incubated for 10 min on the pipetting station deck. The DNA-transfection reagent complexes were then added to plates containing cells. To facilitate the screen, 10 μL of DNA-transfection reagent complexes were added in duplicates to the top 4 and bottom 4 rows, resulting in two identical 48-well arrays per plate. Plates with transfected cells were incubated for 18–20 h at 37 °C/5% CO2. A screen of each tracer across the entire library using two different concentrations requires duplicate plates of transfected cells. Depending on the number of tracers being screened, transfections can be scaled up using the same ratios. The next day, for each tracer, four 20× screening solutions in tracer dilution buffer (Promega) were prepared: two duplicates at final concentration of 20 μM and two duplicates at a final concentration of 2 μM. A competing unmodified compound was added to one of each duplicate at a final concentration of 400 μM. The four resulting solutions were diluted 4-fold in Opti-MEM without serum or phenol red to generate 5× solutions (5 µM and 0.5 µM tracer +/− 100 μM competing compound). To screen the library, a BioTek MultiFlo FX liquid dispenser was used to dispense 22.5 µL of tracer solution to the top 4 rows and 22.5 µL tracer + competing compound solution to the 4 bottom rows. Plates were briefly mixed on an orbital shaker and incubated for 1.5 h at room temperature. […]

GCGR = target: T2, GCGR (Homo sapiens, UniProt P47871); assay: NanoBRET screen HiBiT-GCGR in HEK293; conditions: GCGR
T2 construct: purchased Promega (in-house HiBiT-GPCR construct library, NanoBRET)
T2 sequence (P47871 26-477): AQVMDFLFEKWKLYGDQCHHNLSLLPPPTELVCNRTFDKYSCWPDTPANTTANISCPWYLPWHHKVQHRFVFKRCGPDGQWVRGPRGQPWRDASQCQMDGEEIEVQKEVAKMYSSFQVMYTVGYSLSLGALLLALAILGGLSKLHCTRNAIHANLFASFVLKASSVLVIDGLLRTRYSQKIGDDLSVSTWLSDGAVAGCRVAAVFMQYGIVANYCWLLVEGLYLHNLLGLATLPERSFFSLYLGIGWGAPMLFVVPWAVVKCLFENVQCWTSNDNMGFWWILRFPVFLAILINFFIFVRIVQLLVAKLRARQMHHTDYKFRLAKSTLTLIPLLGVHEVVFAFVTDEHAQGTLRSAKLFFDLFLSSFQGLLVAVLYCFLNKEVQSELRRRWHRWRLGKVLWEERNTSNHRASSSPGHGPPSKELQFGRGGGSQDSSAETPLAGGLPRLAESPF
Experimental: as §1, §2

FPR1 = target: T3, FPR1 (Homo sapiens, UniProt P21462); assay: NanoBRET screen HiBiT-FPR1 in HEK293
T3 construct: purchased Promega (in-house HiBiT-GPCR construct library, NanoBRET)
T3 sequence (P21462 1-350): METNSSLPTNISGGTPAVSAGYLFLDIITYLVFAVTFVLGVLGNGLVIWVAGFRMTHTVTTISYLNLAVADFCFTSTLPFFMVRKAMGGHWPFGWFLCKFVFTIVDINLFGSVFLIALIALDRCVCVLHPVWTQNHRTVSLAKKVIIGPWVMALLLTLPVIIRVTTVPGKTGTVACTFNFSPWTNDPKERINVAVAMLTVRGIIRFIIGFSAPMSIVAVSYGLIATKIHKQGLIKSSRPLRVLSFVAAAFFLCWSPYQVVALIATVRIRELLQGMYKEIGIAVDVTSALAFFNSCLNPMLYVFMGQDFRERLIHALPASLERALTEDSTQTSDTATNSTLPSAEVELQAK
Experimental: as §1, §2

LGR6 = target: T4, LGR6 (Homo sapiens, UniProt Q9HBX8); assay: NanoBRET screen HiBiT-LGR6 in HEK293
T4 construct: purchased Promega (in-house HiBiT-GPCR construct library, NanoBRET)
T4 sequence (Q9HBX8 25-967): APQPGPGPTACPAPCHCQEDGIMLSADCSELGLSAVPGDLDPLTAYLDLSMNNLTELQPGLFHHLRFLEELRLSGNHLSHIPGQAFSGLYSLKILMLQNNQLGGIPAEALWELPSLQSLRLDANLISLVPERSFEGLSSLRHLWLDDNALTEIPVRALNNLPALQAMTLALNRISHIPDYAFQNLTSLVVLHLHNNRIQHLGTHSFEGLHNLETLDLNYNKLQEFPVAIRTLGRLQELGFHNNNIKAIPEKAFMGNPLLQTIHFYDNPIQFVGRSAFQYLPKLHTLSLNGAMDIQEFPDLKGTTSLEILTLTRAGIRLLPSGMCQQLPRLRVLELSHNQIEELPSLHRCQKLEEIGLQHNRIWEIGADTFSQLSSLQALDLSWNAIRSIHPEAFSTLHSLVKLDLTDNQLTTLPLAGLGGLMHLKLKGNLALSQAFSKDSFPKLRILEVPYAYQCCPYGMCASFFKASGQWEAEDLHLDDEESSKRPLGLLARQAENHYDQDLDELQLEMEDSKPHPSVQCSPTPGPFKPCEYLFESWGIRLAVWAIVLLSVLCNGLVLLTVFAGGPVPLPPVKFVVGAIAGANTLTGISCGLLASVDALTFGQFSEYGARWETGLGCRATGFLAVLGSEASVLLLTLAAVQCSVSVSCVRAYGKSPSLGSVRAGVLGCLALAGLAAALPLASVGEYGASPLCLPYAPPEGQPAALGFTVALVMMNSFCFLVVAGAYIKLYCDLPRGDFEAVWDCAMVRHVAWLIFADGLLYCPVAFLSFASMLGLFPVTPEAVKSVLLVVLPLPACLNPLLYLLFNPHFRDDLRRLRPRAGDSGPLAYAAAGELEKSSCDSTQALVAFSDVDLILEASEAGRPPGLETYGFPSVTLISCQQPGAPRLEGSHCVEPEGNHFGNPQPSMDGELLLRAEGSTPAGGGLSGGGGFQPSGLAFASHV
Experimental: as §1, §2

[1] = tracer at 0.1μM, listed as amitriptyline-b-2-NB590
[2] = tracer at 1μM, listed as amitriptyline-b-2-NB590

T1 sequence (P61073 whole entry): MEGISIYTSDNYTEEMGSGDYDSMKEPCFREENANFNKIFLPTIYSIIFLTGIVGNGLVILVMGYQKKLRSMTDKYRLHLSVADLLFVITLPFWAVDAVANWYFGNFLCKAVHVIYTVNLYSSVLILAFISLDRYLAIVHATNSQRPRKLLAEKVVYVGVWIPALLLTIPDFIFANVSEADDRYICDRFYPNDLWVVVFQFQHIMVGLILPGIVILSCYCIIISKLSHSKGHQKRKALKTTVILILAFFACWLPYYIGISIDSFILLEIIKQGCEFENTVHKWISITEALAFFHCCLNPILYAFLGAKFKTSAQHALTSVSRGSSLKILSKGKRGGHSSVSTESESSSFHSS

SMILES	NanoBRET Fold Response (CXCR4; CXCR4, tracer 0.1μM)	NanoBRET Fold Response (CXCR4; CXCR4, tracer 1μM)	NanoBRET Fold Response (GCGR; tracer 0.1μM)	NanoBRET Fold Response (GCGR; tracer 1μM)	NanoBRET Fold Response (FPR1; FPR1, tracer 0.1μM)	NanoBRET Fold Response (FPR1; FPR1, tracer 1μM)	NanoBRET Fold Response (LGR6; LGR6, tracer 0.1μM)	NanoBRET Fold Response (LGR6; LGR6, tracer 1μM)	also measured
Cc1nc2n(c(=O)c1CCN1CCC(c3noc4cc(F)ccc34)CC1)CCCC2OC(=O)NCCOCCOCCOCCOCCNC(=O)CCc1ccc2n1[B-](F)(F)[N+]1=C(c3ccc[nH]3)C=CC1=C2 (stereo not drawn) [Risperidone-2-NB590]	1.05	1.12	0.97	0.93	0.97	0.91	1.04	1.02	–
CCOC(=O)c1cc(C#N)c(N2CCC(C(=O)NS(=O)(=O)Cc3ccccc3/C=C/C(=O)NCCNC(=O)CCc3ccc4n3[B-](F)(F)[N+]3=C(c5ccc[nH]5)C=CC3=C4)CC2)nc1C [AZD1283-1-NB590]	–	–	–	–	–	–	–	–	NanoBRET Fold Response (CXCR4; CXCR4, 0.1μM): 0.86; NanoBRET Fold Response (CXCR4; CXCR4, 1μM): 1.17; NanoBRET Fold Response (GCGR; 0.1μM): 1.05; NanoBRET Fold Response (GCGR; 1μM): 1.12; NanoBRET Fold Response (FPR1; FPR1, 0.1μM): 1.09; NanoBRET Fold Response (FPR1; FPR1, 1μM): 1.05; NanoBRET Fold Response (LGR6; LGR6, 0.1μM): 1.27; NanoBRET Fold Response (LGR6; LGR6, 1μM): 0.90
Cc1cc2c(s1)Nc1ccccc1N=C2N1CCN(CCCNC(=O)CCOCCOCCOCCOCCNC(=O)CCc2ccc3n2[B-](F)(F)[N+]2=C(c4ccc[nH]4)C=CC2=C3)CC1 [Olanzapine-a-2-NB590]	1.04	1.10	0.97	0.95	1.09	1.01	1.09	1.22	–
COc1ccccc1N1CCN(CCCCN2C(=O)c3ccc(CNC(=O)CCOCCNC(=O)c4ccc(CNC(=O)CCc5ccc6n5[B-](F)(F)[N+]5=C(c7ccc[nH]7)C=CC5=C6)cc4)cc3C2=O)CC1 [NAN-190-3-NB590]	1.24	1.08	0.84	0.76	0.95	1.09	1.39	0.60	–
CC(C)N(CC[C@H](c1ccccc1)c1cc(CCNC(=O)CCOCCOCCOCCOCCNC(=O)CCc2ccc3n2[B-](F)(F)[N+]2=C(c4ccc[nH]4)C=CC2=C3)ccc1O)C(C)C [Tolterodine-2-NB590]	0.88	1.02	1.32	1.04	1.07	0.85	1.39	1.36	–
CN(C)CCC=C1c2ccccc2CCc2ccc(C(=O)NCCNC(=O)CCOCCOCCOCCOCCNC(=O)CCc3ccc4n3[B-](F)(F)[N+]3=C(c5ccc[nH]5)C=CC3=C4)cc21 [Amitriptyline-b-2-NB590]	–	–	0.91	1.03	–	–	–	–	NanoBRET Fold Response (CXCR4; [1]): 1.12; NanoBRET Fold Response (CXCR4; tracer at 1μM): 0.70; NanoBRET Fold Response (FPR1; tracer at 0.1μM): 0.96; NanoBRET Fold Response (FPR1; [2]): 1.02; NanoBRET Fold Response (LGR6; [1]): 0.92; NanoBRET Fold Response (LGR6; [2]): 1.14
O=C(CCOCCOCCOCCOCCNC(=O)CCc1ccc2n1[B-](F)(F)[N+]1=C(c3ccc[nH]3)C=CC1=C2)NCCCN1CCN(C2=Nc3ccccc3Oc3ccc(Cl)cc32)CC1 [Loxapine-a-2-NB590]	1.03	1.03	1.05	1.24	0.99	1.10	0.91	1.25	–
CN(C)CCC=C1c2ccccc2CCc2ccc(C(=O)NCCNC(=O)CCOCCOCCOCCOCCNC(=O)CCc3ccc4n3[B-](F)(F)[N+]3=C(c5ccc[nH]5)C=CC3=C4)cc21 [Amitriptyline-a-2-NB590]	–	–	–	–	–	–	–	–	NanoBRET Fold Response (CXCR4; tracer at 0.1μM): 0.89; NanoBRET Fold Response (CXCR4; tracer at 1μM): 1.04; NanoBRET Fold Response (FPR1; tracer at 0.1μM): 1.02; NanoBRET Fold Response (FPR1; tracer at 1μM): 1.04; NanoBRET Fold Response (LGR6; tracer at 0.1μM): 0.93; NanoBRET Fold Response (LGR6; tracer at 1μM): 0.97
O=C(CCc1ccc2n1[B-](F)(F)[N+]1=C(c3ccc[nH]3)C=CC1=C2)NCCOCCOCCNC(=O)OCCOCCN1CCN(C2=Nc3ccccc3Sc3ccccc32)CC1 [Quetiapine-a-2-NB590]	0.98	0.97	0.94	0.73	1.05	0.92	0.93	0.96	–
COc1ccccc1N1CCN(CCCCN2C(=O)c3ccc(CNC(=O)CCOCCOCCOCCOCCNC(=O)CCc4ccc5n4[B-](F)(F)[N+]4=C(c6ccc[nH]6)C=CC4=C5)cc3C2=O)CC1 [NAN-190-2-NB590]	1.00	1.03	1.06	1.06	1.09	1.04	–	–	–
CN(CCC=C1c2ccccc2CCc2ccccc21)C(=O)CCOCCOCCOCCOCCNC(=O)CCc1ccc2n1[B-](F)(F)[N+]1=C(c3ccc[nH]3)C=CC1=C2 [Amitriptyline-e-2-NB590]	–	–	–	–	–	–	–	–	NanoBRET Fold Response (CXCR4; tracer at 1μM): 1.15; NanoBRET Fold Response (LGR6; tracer at 1μM): 1.16
